Experiments:
[1] = target: T1, BRAF G466V (Homo sapiens, UniProt P15056, G466V); test: Cellular assay of target protein degradation, T-Rex 293 cells stably transfected with HA-BRAF G466V (HA immunofluorescence, high content imaging); type: cell-based; settings: T-Rex 293 HA-BRAF G466V; for DC50: half maximal degradation, read-out: BRaf G466V DC50; for Dmax: maximum degradation observed
T1 construct: expressed in transfected cells
How it was run: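 Doxycycline-induced (0.75 ng/mL) cells treated 24 h at 37 °C with compound from 30 nM to 3 pM (0.1% DMSO). After fixation and permeabilisation, HA-tagged BRAF G466V immunostained and quantified by high-content imaging. DC50 and Dmax (percent of control) derived.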

[2] = target: T2, BRAF V600E (Homo sapiens, UniProt P15056, V600E); test: Cellular assay of target protein degradation, T-Rex 293 cells stably transfected with HA-BRAF_V600E (HA immunofluorescence, high content imaging); type: cell-based; settings: T-Rex 293 HA-BRAF V600E; for DC50: half maximal degradation, read-out: BRaf V600E DC50; for Dmax: maximum degradation observed
T2 construct: expressed in transfected cells
How it was run: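 Doxycycline-induced (1 ng/mL) T-Rex 293 cells expressing HA-BRAF V600E treated 24 h at 37 °C with compound at 1 μM to 0.1 nM final in 0.1% DMSO. Remaining HA-tagged protein quantified by fixed-cell anti-HA immunofluorescence and high-content imaging; DC50 and Dmax (% of control) derived.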

T2 sequence (P15056 whole entry V600E): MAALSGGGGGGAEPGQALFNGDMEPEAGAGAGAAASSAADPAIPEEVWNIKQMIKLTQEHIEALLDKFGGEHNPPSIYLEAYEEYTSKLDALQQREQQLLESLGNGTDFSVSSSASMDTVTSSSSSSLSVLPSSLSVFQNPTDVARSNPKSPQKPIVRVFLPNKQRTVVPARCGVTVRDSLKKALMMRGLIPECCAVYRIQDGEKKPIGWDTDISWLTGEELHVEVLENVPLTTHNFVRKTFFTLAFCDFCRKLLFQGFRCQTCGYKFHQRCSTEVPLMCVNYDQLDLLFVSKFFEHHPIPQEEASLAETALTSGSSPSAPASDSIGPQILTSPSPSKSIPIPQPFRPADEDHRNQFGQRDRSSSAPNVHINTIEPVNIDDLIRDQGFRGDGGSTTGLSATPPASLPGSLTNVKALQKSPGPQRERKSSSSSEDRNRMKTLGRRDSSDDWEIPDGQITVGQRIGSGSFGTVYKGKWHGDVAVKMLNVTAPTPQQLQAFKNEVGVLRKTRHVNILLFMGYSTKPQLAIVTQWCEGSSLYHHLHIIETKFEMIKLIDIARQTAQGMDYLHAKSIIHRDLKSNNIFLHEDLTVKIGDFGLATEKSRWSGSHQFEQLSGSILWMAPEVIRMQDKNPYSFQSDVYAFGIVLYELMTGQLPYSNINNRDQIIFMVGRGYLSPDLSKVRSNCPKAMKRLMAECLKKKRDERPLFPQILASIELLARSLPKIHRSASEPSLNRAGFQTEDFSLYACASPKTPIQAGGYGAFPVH
T1 sequence (P15056 whole entry G466V): as the sequence (P15056 whole entry V600E) above, with G466V, E600V counted along it

Row | DC50 [1] | Dmax [1] | DC50 [2] | Dmax [2] | SMILES
1 | 1 to 10 nM | > 70% | 50 to 500 nM | 35 to 70% | COc1cc([C@H](O)CCN2CCN(c3ccc(-c4cnc5[nH]cc(C(=O)c6c(F)ccc(NS(=O)(=O)N7CC[C@@H](F)C7)c6F)c5c4)cc3)CC2)cc2c1C(=O)N([C@H]1CCC(=O)NC1=O)C2 [Compound 186, (3R)-N-{3-[5-(4-{4-[(3R)-3-{2-[(3S)-2,6-dioxopiperidin-3-yl]-7-methoxy-1-oxo-2,3-dihydro-1H-isoindol-5-yl}-3-hydroxypropyl]piperazin-1-yl}phenyl)-1H-pyrrolo[2,3-b]pyridine-3-carbonyl]-2,4-difluorophenyl}-3-fluoropyrrolidine-1-sulfonamide]
2 | < 1 nM | > 70% | 5 to 50 nM | 35 to 70% | COc1cc(C2CCN(CC3CCN(c4ncc(-c5cnc6[nH]cc(C(=O)c7c(F)ccc(NS(=O)(=O)N8CC[C@@H](F)C8)c7F)c6c5)cn4)CC3)CC2)cc2c1C(=O)N(C1CCC(=O)NC1=O)C2 (stereo partly drawn) [Compound 175, (3R)-N-[3-(5-{2-[4-({4-[2-(2,6-dioxopiperidin-3-yl)-7-methoxy-1-oxo-2,3-dihydro-1H-isoindol-5-yl]piperidin-1-yl}methyl)piperidin-1-yl]pyrimidin-5-yl}-1H-pyrrolo[2,3-b]pyridine-3-carbonyl)-2,4-difluorophenyl]-3-fluoropyrrolidine-1-sulfonamide]
3 | 1 to 10 nM | > 70% | 5 to 50 nM | 35 to 70% | O=C1CC[C@H](NC(=O)N2CCCc3c(N4CCN(CC5CCN(c6ccc(-c7cnc8[nH]cc(C(=O)c9c(F)ccc(NS(=O)(=O)N%10CC[C@@H](F)C%10)c9F)c8c7)cc6)CC5)CC4)ccnc32)C(=O)N1 [Compound 369, 5-(4-{[1-(4-{3-[2,6-difluoro-3-({[(3R)-3-fluoropyrrolidin-1-yl]sulfonyl}amino)benzoyl]-1H-pyrrolo[2,3-b]pyridin-5-yl}phenyl)piperidin-4-yl]methyl}piperazin-1-yl)-N-[(3S)-2,6-dioxopiperidin-3-yl]-1,2,3,4-tetrahydro-1,8-naphthyridine-1-carboxamide]
4 | 1 to 10 nM | 35 to 70% | 50 to 500 nM | < 35% | O=C1CC[C@@H](NC(=O)c2ccc(N3CCN(CC4CCN(c5ccc(-c6cnc7[nH]cc(C(=O)c8c(F)ccc(NS(=O)(=O)N9CC[C@@H](F)C9)c8F)c7c6)cc5)CC4)CC3)cc2F)C(=O)N1 [Compound 342, 4-(4-{[1-(4-{3-[2,6-difluoro-3-({[(3R)-3-fluoropyrrolidin-1-yl]sulfonyl}amino)benzoyl]-1H-pyrrolo[2,3-b]pyridin-5-yl}phenyl)piperidin-4-yl]methyl}piperazin-1-yl)-N-[(3R)-2,6-dioxopiperidin-3-yl]-2-fluorobenzamide]
5 | 1 to 10 nM | > 70% | 50 to 500 nM | 35 to 70% | O=C1CCC(N2Cc3cc(CCOCCN4CCC(c5ccc(-c6cnc7[nH]cc(C(=O)c8c(F)ccc(NS(=O)(=O)N9CC[C@@H](F)C9)c8F)c7c6)cc5)CC4)ccc3C2=O)C(=O)N1 (stereo partly drawn) [Compound 151, (3R)-N-[3-(5-{4-[1-(2-{2-[2-(2,6-dioxopiperidin-3-yl)-1-oxo-2,3-dihydro-1H-isoindol-5-yl]ethoxy}ethyl)piperidin-4-yl]phenyl}-1H-pyrrolo[2,3-b]pyridine-3-carbonyl)-2,4-difluorophenyl]-3-fluoropyrrolidine-1-sulfonamide]
6 | 1 to 10 nM | > 70% | 50 to 500 nM | 35 to 70% | O=C1CCC(N2Cc3cc(N4CC5(CN(CCOc6ncc(-c7cnc8[nH]cc(C(=O)c9c(F)ccc(NS(=O)(=O)N%10CC[C@@H](F)C%10)c9F)c8c7)cn6)C5)C4)ccc3C2=O)C(=O)N1 (stereo partly drawn) [Compound 117, (3R)-N-(3-{5-[2-(2-{6-[2-(2,6-dioxopiperidin-3-yl)-1-oxo-2,3-dihydro-1H-isoindol-5-yl]-2,6-diazaspiro[3.3]heptan-2-yl}ethoxy)pyrimidin-5-yl]-1H-pyrrolo [2,3-b]pyridine-3-carbonyl}-2,4-difluorophenyl)-3-fluoropyrrolidine-1-sulfonamide]

— patent US12180193B2, “Accelerating fibrosarcoma protein degrading compounds and associated methods of use” (Arvinas Operations, Inc., priority 2020, dated 2024)
